# Reference: publication PMC7021761 (Nature Communications, 2020)
# How the values were obtained:
# [1] = target: T1, C5aR (Homo sapiens, UniProt P21730); test: 35S-GTPγS binding assay, Sf9 cell membranes overexpressing C5aR with purified Gi (control); format: biochemical; settings: increasing concentrations of WKYMVm, n = 3
# T1 construct: expressed in transfected cells; host or cells: Sf9 insect cells, membranes
# T1 sequence (P21730 1-350): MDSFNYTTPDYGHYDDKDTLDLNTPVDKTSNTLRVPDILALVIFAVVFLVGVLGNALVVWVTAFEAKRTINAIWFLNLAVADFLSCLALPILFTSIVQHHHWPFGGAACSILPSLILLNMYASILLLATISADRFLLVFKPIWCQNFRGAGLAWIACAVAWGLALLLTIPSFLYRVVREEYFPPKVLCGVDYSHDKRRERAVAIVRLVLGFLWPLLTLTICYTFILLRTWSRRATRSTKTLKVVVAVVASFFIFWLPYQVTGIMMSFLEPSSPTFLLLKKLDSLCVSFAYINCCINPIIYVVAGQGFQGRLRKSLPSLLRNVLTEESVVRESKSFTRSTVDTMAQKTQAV
# Protocol: To form receptor-Gi complex, ~250 μg/ml of membrane of Sf9 cells overexpressing FPR2 or C5aR (for Fig. 1a) or membrane of HEK-293 cells transiently expressing FPR2 and mutants was incubated with 200 nM purified Gi protein for 25 minutes at 4°C in buffer containing 20 mM HEPES pH 7.5, 100 mM NaCl, 5 mM MgCl2, 5 μM GDP, 0.1 μM TCEP, and 3 μg/ml BSA. […] After 10–15 min reaction at 25 °C, 4 ml of cold wash buffer containing 20 mM HEPES pH 7.5, 100 mM NaCl and 5 mM MgCl2 was added to terminate the reaction, and the membranes was collected by filtering through glass fiber prefilters (Millipore Sigma). After four times additional wash, the filters were incubated with 5 ml of CytoScint liquid scintillation cocktail (MP Biomedicals) and counted in a Beckman LS6500 scintillation counter to determine the receptor activation induced binding of ^35S-GTPγS to Gi. The data were analyzed by GraphPad Prism 6 (GraphPad Software). Results are presented as mean ± s.e.m. from three independent experiments.
# [2] = tested on: FPR1; settings: cited from earlier work
# Source text: FPR1 and FPR2 share a high 69% sequence identity, but they have distinct preferences for formylpeptides and play different roles in host defense[4],[40],[43]. […] To explore the molecular basis for the different receptor pharmacology, we generated a three-dimensional homology model of FPR1 ...
# [3] = Aggregation of the ligand in assay buffer (authors' reply to reviewer); format: physicochemical; settings: peptide with a high hydrophobicity; authors' statement in rebuttal, no data shown
# [4] = target: T2, FPR2 R201A (Homo sapiens, UniProt P25090, R201A); test: BRET assay of Gi coupling to FPR2-Rluc8, permeabilized HEK-293 cells, R201A; format: cell-based; parameters: expressed in transfected cells; host or cells: HEK-293 cells (ATCC), transient, digitonin-permeabilized
# Protocol: (§1) HEK-293 cells (ATCC, Manassas, VA, USA) were propagated in plastic flasks and on 6-well plates according to the supplier’s protocol. To measure Gi coupling to FPR2, cells were transiently transfected with an FPR2-Rluc8 receptor (wt or mutant) and Gαi1, Venus-1-155-Gγ2 and Venus-155-239-Gβ1 using linear polyethyleneimine MAX (PEI MAX; MW 40,000) at an N/P ratio of 20 and were used for experiments 48 h later. Up to 3.0 μg of plasmid DNA was transfected in each well of a 6-well plate. To measure BRET signals, cells were washed twice with permeabilization buffer (KPS) containing 140 mM KCl, 10 mM NaCl, 1 mM MgCl2, 0.1 mM KEGTA, 20 mM NaHEPES (pH 7.2), harvested by trituration, permeabilized in KPS buffer containing 10 μg ml^−1 high purity digitonin, and transferred to opaque black 96-well plates containing diluted ligands and 2U ml^−1 apyrase. After addition of coelenterazine h (5 µM; Nanolight, Pinetop, AZ, USA), steady-state BRET measurements were made using a Mithras LB940 photon-counting plate reader (Berthold Technologies GmbH, Bad Wildbad, Germany). Raw BRET signals were calculated as the emission intensity at 520–545 nm divided by the emission intensity at 475–495 nm. The data were analyzed in Prism (GraphPad) by using ‘log(agonist) vs normalized response- variable slope (four parameters)’ of dose-response stimulation.
# Target sequence in this assay (P25090 whole entry R201A): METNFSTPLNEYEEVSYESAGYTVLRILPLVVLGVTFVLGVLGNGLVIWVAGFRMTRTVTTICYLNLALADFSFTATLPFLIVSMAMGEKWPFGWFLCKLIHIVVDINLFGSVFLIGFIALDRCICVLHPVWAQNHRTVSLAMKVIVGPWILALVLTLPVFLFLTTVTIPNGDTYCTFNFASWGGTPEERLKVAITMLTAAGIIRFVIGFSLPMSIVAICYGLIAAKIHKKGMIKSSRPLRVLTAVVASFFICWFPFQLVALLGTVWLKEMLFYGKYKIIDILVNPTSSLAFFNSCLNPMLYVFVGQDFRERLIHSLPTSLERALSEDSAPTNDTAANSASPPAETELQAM
# Target sequence in this assay (P63096 whole entry partner): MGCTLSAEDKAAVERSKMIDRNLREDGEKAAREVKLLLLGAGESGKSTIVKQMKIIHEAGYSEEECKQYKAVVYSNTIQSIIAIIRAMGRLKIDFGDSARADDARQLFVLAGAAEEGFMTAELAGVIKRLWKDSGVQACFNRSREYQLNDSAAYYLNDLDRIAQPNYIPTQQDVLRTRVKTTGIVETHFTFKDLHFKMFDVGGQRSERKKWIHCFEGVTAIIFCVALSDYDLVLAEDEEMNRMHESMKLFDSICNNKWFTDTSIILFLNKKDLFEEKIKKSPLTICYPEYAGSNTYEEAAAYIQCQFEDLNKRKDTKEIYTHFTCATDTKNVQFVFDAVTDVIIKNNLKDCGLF
# Target sequence in this assay (P59768 whole entry partner): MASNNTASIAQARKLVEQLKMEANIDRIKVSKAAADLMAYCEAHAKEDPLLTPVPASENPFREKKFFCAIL
# Target sequence in this assay (P62873 whole entry partner): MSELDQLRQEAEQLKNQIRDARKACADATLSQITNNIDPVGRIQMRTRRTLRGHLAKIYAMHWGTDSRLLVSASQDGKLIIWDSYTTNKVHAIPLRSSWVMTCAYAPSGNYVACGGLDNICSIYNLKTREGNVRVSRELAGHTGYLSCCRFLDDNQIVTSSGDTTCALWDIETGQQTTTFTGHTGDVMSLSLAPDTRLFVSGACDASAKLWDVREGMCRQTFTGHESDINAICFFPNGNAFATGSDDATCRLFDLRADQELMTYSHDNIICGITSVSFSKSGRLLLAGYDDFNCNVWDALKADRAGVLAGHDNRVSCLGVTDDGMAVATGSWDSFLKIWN
# [5] = target: T2, FPR2 R201A; test: 35S-GTPγS binding assay, HEK-293 cell membranes with purified Gi, FPR2 R201A; format: biochemical; parameters: FLAG; expressed in transfected cells; host or cells: HEK-293 cells, transient, membranes
# Target sequence in this assay (P25090 whole entry R201A): as the sequence (P25090 whole entry R201A) above
# Target sequence in this assay (P63096 whole entry partner): as the sequence (P63096 whole entry partner) above
# Target sequence in this assay (P54311 whole entry partner): as the sequence (P62873 whole entry partner) above
# Target sequence in this assay (P63212 2-68 partner limits assumed): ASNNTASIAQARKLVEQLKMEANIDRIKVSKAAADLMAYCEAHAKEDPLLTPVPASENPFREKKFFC
# [6] = target: T3, FPR2 R205A (Homo sapiens, UniProt P25090, R205A); test: 35S-GTPγS binding assay, HEK-293 cell membranes with purified Gi, FPR2 R205A; format: biochemical; parameters: FLAG; expressed in transfected cells; host or cells: HEK-293 cells, transient, membranes
# Target sequence in this assay (P25090 whole entry R205A): as the sequence (P25090 whole entry R201A) above, with A201R, R205A counted along it
# Target sequence in this assay (P63096 whole entry partner): as the sequence (P63096 whole entry partner) above
# Target sequence in this assay (P54311 whole entry partner): as the sequence (P62873 whole entry partner) above
# Target sequence in this assay (P63212 2-68 partner limits assumed): as the sequence (P63212 2-68 partner limits assumed) above
# [7] = target: T3, FPR2 R205A; test: BRET assay of Gi coupling to FPR2-Rluc8, permeabilized HEK-293 cells, R205A; format: cell-based; parameters: expressed in transfected cells; host or cells: HEK-293 cells (ATCC), transient, digitonin-permeabilized
# Protocol: as §1
# Target sequence in this assay (P25090 whole entry R205A): as the sequence (P25090 whole entry R201A) above, with A201R, R205A counted along it
# Target sequence in this assay (P63096 whole entry partner): as the sequence (P63096 whole entry partner) above
# Target sequence in this assay (P59768 whole entry partner): as the sequence (P59768 whole entry partner) above
# Target sequence in this assay (P62873 whole entry partner): as the sequence (P62873 whole entry partner) above
# [8] = tested on: Wild type FPR2; settings: cited from earlier work
# Source text: IC50 values of six formylpeptides in the cAMP accumulation assays reported previously by He et al., 2014*.
substance,measurement,setting,value
"Trp-Lys-Tyr-Met-Val-d-Met-NH2 [WKYMVm, synthetic peptide agonist of FPR2]",WKYMVm-induced Gi activation with C5aR (control),[1],didn’t induce Gi activation
same,potency for FPR1 compared with FPR2,[2],lower potency
fMLF,fold more potent in activating FPR1 than activating FPR2,[2],~ 1000 fold
fMLFII [short formylpeptide],concentration above which fractions of aggregation could occur,[3],above 10 µM
same,"fMLFII-induced Gi coupling, R201A mutant versus wt",[4],dramatic decrease
same,"fMLFII-induced FPR2 activation, R201A mutant versus wt",[5],dramatic decrease
same,"fMLFII-induced FPR2 activation, R205A mutant versus wt",[6],dramatic decrease
same,"fMLFII-induced Gi coupling, R205A mutant versus wt",[7],dramatic decrease
fMLFK,fold higher potency in activating FPR2 than fMLFE,[8],500–5000 fold
